Source: PMC11855827, “High-Throughput Screening of Five Compound Libraries for Anthelmintic Activity and Toxicity Leads to the Discovery of Two Flavonoid Compounds” (International Journal of Molecular Sciences, 2025)
Read-outs that look alike come from different tables or passages of the source.

Columns and labels:
C. elegans [1] = assay: C. elegans motility dose-response (DR) assay; parameters: species or system Caenorhabditis elegans
[2] = system: H. contortus susceptible strain; assay: Larval migration inhibition test (LMIT); parameters: species or system Haemonchus contortus; details: L3, 100 μM, NE = Not Effective at 100 μM, control ivermectin 8.75 µg/mL; for inhibition at 100 µM: Haemonchus contortus, 24 h
Source text: (§1) Eggs and third instar larvae (L3) of H. contortus from a field strain and a resistant strain of T. circumcincta were used in the current trials. These parasitic forms were obtained from fresh feces of Merino and Churra sheep experimentally infected at the experimental farm of the Instituto de Ganadería de Montaña (IGM, CSIC, Gruyeros, León, Spain) and purified according to previously described methods. Briefly, eggs were taken from fresh feces, washed, centrifuged and floated with a saturated sodium chloride solution, then concentrated, counted and used in the assays. L3 were obtained by culturing feces at 25 °C for 13 d. L3 larvae were […] in 0.5% sodium hypochlorite solution for 10 min at room temperature and washed to avoid excess salt. After washing, they were concentrated and counted for use.
(§2) The viability of H. contortus larvae was assessed by the larval migration inhibition test (LMIT) according to previously described methods. Briefly, 700 µL aliquots containing 500–600 L3 were prepared for each compound. […] After a 24 h incubation at 28 °C, the compound was removed by three washes, leaving a final volume of 1400 µL. After the washes, three 400 µL aliquots were taken from each tube and transferred to a 96-well plate with a MultiScreen mesh filter. The plates were incubated for a further 24 h at 28 °C to allow the motile L3 to pass through the 20 µm mesh for counting. Then, the number of larvae present in each well was counted to determine percentage of larval migration for each compound: % Larval migration=number of larvae migrating in compound wells/number of larvae migrating in negative control×100
(§3) For the larvae, ivermectin at 8.75 µg/mL and DMSO 0.5% (v/v) were used as controls and at least 12 replicates were performed. […] EC50 were determined by plotting the percentage of viability of the L1 against the concentration of each compound, using the nonlinear fit analysis provided by the SigmaPlot® 10.1.

[3] = system: T. circumcincta resistant strain; assay: Larval migration inhibition test (LMIT); parameters: species or system Teladorsagia circumcincta; details: Teladorsagia circumcincta, 24 h, read-out: T. circumcincta LMIT (%)
Source text: as §1, §2, §3

C. elegans [4] = assay: microbe, parasite or virus in culture; details: Caenorhabditis elegans
[5] = system: T. circumcincta resistant strain; assay: Egg hatch inhibition (EHI), ovicidal effect; parameters: species or system Teladorsagia circumcincta
[6] = system: H. contortus susceptible strain; assay: Egg hatch inhibition (EHI), ovicidal effect; parameters: species or system Haemonchus contortus
C. elegans [7] = details: read-out: EC50 found in the literature; cited from earlier work
C. elegans [8] = details: C. elegans L4 motility, 110 μM, mean ± SD of four experiments
[9] = Caenorhabditis elegans, read-out: EC50 (μM) at 24 h, C. elegans motility, DR assay
[10] = 0 h, read-out: Inhibition (%) 110 μM (0 h)
[11] = 24 h, read-out: Inhibition (%) 110 μM (24 h)
[12] = Haemonchus contortus, susceptible strain, 100 μM, NE = Not Effective at 100 μM, control thiabendazole 0.1 µg/mL
[13] = 24 h, read-out: Percentage of motility inhibition 24 h, Table S2, C. elegans SS assay, 110 μM, 24 h, averages of 4 data points
[14] = Caenorhabditis elegans, 24 h, read-out: EC50 (μM) at 24 h, C. elegans motility, DR assay, 24 h
[15] = 0 h, read-out: Inhibition (%) 110 μM (0 h), C. elegans L4 motility, 110 μM, 0 h, mean ± SD of four experiments
[16] = 24 h, read-out: Inhibition (%) 110 μM (24 h), C. elegans L4 motility, 110 μM, 24 h, mean ± SD of four experiments

## C[C@@H]1CC[C@@]2(OC1)O[C@H]1C[C@H]3[C@@H]4CC=C5C[C@@H](O[C@@H]6O[C@H](CO)[C@@H](O[C@@H]7O[C@@H](C)[C@H](O)[C@@H](O)[C@H]7O)[C@H](O)[C@H]6O[C@@H]6O[C@@H](C)[C@H](O)[C@@H](O)[C@H]6O)CC[C@]5(C)[C@H]4CC[C@]3(C)[C@H]1[C@@H]2C [Dioscin]
C. elegans [1]; [9]
  EC50: 37.8 ± 1.3 µM
[2]
  inhibition at 100 µM: 0%
[3]
  inhibition at 100 µM: 0%
C. elegans [4]; [10]
  inhibition at 110 µM: 12 ± 1%
C. elegans [4]; [11]
  inhibition at 110 µM: 79 ± 2%

## c1ccc2[nH]c(-c3cscn3)nc2c1 [Thiabendazole, reference compound]
[5]; Teladorsagia circumcincta, egg hatching, resistant T. circumcincta, nine replicates, read-out: Ovicidal Effect EC50 (μM) T. c
  EC50: 1.53 ± 0.06 µM
[5]; Teladorsagia circumcincta, resistant strain, 100 μM, NE = Not Effective at 100 μM, control thiabendazole 0.1 µg/mL
  inhibition at 100 µM: 100%
[6]; Haemonchus contortus, egg hatching, susceptible H. contortus, nine replicates, read-out: Ovicidal Effect EC50 (μM) H. c
  EC50: 0.28 ± 0.01 µM
[6]; [12]
  inhibition at 100 µM: 100%

## CC[C@@H](C(=O)[C@@H](C)[C@@H](O)[C@H](C)[C@@H]1O[C@@H]([C@@H](CC)C(=O)O)CC[C@@H]1C)[C@H]1O[C@]2(C=C[C@@H](O)[C@]3(CC[C@@](C)([C@H]4CC[C@](O)(CC)[C@H](C)O4)O3)O2)[C@H](C)C[C@@H]1C [Salinomycin, reference compound]
C. elegans [1]; [9]
  EC50: 55.3 ± 1.4 µM
[2]
  inhibition at 100 µM: 0%
[6]; [12]
  inhibition at 100 µM: 2.8 ± 5.1%
C. elegans [4]; [10]
  inhibition at 110 µM: 81 ± 9%
C. elegans [4]; [11]
  inhibition at 110 µM: 94 ± 1%
C. elegans [4]; [13]
  inhibition at 110 µM: 93%

## c1ccc([C@H]2CN3CCSC3=N2)cc1 [Levamisole, reference compound]
C. elegans [1]; [14]
  EC50: 1.91 µM
C. elegans [4]; [15]
  inhibition at 110 µM: 87 ± 10%
C. elegans [4]; [16]
  inhibition at 110 µM: 61 ± 3%
C. elegans [7]
  EC50: 6400 nM

## CCOc1ccc2nc3cc(N)ccc3c(N)c2c1 [Ethacridine lactate monohydrate, reference compound]
C. elegans [1]; read-out: EC50 (μM) at 24 h, C. elegans motility, DR assay
  EC50: 28.2 ± 1 µM
[2]
  H. contortus LMIT (%): 0.0%
[5]; resistant strain, 100 μM, NE = Not Effective at 100 μM, control thiabendazole 0.1 µg/mL
  T. circumcincta EHI (%): 0.0%
[3]; resistant strain, L3, 100 μM, NE = Not Effective at 100 μM, control ivermectin 8.75 µg/mL
  inhibition at 100 µM: 0%
C. elegans [8]; 0 h
  Inhibition (%) 110 μM (0 h): 73 ± 17%
C. elegans [8]; 24 h
  Inhibition (%) 110 μM (24 h): 89 ± 4%
[6]; susceptible strain, 100 μM, NE = Not Effective at 100 μM, control thiabendazole 0.1 µg/mL
  H. contortus EHI (%): 54.8 ± 11.7%
C. elegans [4]; 0 h, read-out: Percentage of motility inhibition 0 h, Table S2, C. elegans SS assay, 110 μM, 0 h, averages of 4 data points
  inhibition at 110 µM: 72%

## CO/N=C1\C[C@]2(C[C@@H]3C[C@@H](C/C=C(\C)C[C@@H](C)/C=C/C=C4\CO[C@@H]5[C@H](O)C(C)=C[C@@H](C(=O)O3)[C@]45O)O2)O[C@H](/C(C)=C/C(C)C)[C@H]1C [Moxidectin, reference compound]
C. elegans [1]; [14]
  EC50: 0.79 µM
C. elegans [4]; [15]
  inhibition at 110 µM: 99 ± 1%
C. elegans [4]; [16]
  inhibition at 110 µM: 85 ± 13%
C. elegans [4]; [13]
  inhibition at 110 µM: 86%
C. elegans [7]
  EC50: 30 nM
